Measured values from PubChem BioAssay AID2060894 (Molecular Pharmacology Branch, DTP, NCI, 2025).

Tested on: K12877-001-R-J1-PDC complex spheroid viability
Experiment: Anticancer human tumor K12877-001-R-J1-PDC patient-derived lung adenocarcinoma cell line growth inhibition [RAS]
Details: for IC50: curve of first compound; for viability, T/C: stronger effect = lower value
Method in brief: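 Tumour cells grown as complex spheroids with HUVEC endothelial cells and mesenchymal stem cells, treated with RAS pathway inhibitor combinations. Each agent spans half-log steps from near clinical Cmax, or 10 microM where Cmax is unknown.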

[1] = second compound 0.0316 µM, first compound 0.00316 µM
[2] = second compound 0.0316 µM, first compound 0.01 µM
[3] = second compound 0.0316 µM, first compound 0.0316 µM
[4] = second compound 0.0316 µM, first compound 0.1 µM
[5] = second compound 0.1 µM, first compound 0.00316 µM
[6] = second compound 0.1 µM, first compound 0.01 µM
[7] = second compound 0.1 µM, first compound 0.0316 µM
[8] = second compound 0.1 µM, first compound 0.1 µM
[9] = second compound 0.316 µM, first compound 0.00316 µM
[10] = second compound 0.316 µM, first compound 0.01 µM
[11] = second compound 0.316 µM, first compound 0.0316 µM
[12] = second compound 0.316 µM, first compound 0.1 µM
[13] = second compound 1 µM, first compound 0.00316 µM
[14] = second compound 1 µM, first compound 0.01 µM
[15] = second compound 1 µM, first compound 0.0316 µM
[16] = second compound 1 µM, first compound 0.1 µM
[17] = second compound 3.16 µM, first compound 0.00316 µM
[18] = second compound 3.16 µM, first compound 0.01 µM
[19] = second compound 3.16 µM, first compound 0.0316 µM
[20] = second compound 3.16 µM, first compound 0.1 µM
[21] = second compound 10 µM, first compound 0.00316 µM
[22] = second compound 10 µM, first compound 0.01 µM
[23] = second compound 10 µM, first compound 0.0316 µM
[24] = second compound 10 µM, first compound 0.1 µM
[25] = second compound 0.0316 µM, first compound 0.316 µM
[26] = second compound 0.0316 µM, first compound 1 µM
[27] = second compound 0.1 µM, first compound 0.316 µM
[28] = second compound 0.1 µM, first compound 1 µM
[29] = second compound 0.316 µM, first compound 0.316 µM
[30] = second compound 0.316 µM, first compound 1 µM
[31] = second compound 1 µM, first compound 0.316 µM
[32] = second compound 1 µM, first compound 1 µM
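Also: spheroids exposed to agents for one week before readout.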
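For viability, T/C in this document: tumour cells co-cultured with HUVEC and mesenchymal stem cells in spheroids.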

## CC(C)n1nc(-c2ccc3oc(N)nc3c2)c2c(N)ncnc21 + C#Cc1c(F)ccc2cc(O)cc(-c3ncc4c(N5CC6CCC(C5)N6)nc(OCC56CCCN5CC(F)C6)nc4c3F)c12
Second compound 0.0316 µM
  IC50: 25.3 nM
Second compound 0.1 µM
  IC50: 26.5 nM
Second compound 0.316 µM
  IC50: 27 nM
Second compound 1 µM
  IC50: 28 nM
Second compound 3.16 µM
  IC50: 25.5 nM
Second compound 10 µM
  IC50: 25.6 nM
Second compound 0.0316 µM, first compound 0.000316 µM
  viability, T/C: 105%
Second compound 0.0316 µM, first compound 0.001 µM
  viability, T/C: 88.2%
[1]
  viability, T/C: 83%
[2]
  viability, T/C: 93.9%
[3]
  viability, T/C: 39.8%
[4]
  viability, T/C: 24.5%
Second compound 0.1 µM, first compound 0.000316 µM
  viability, T/C: 99.2%
Second compound 0.1 µM, first compound 0.001 µM
  viability, T/C: 86.2%
[5]
  viability, T/C: 82.4%
[6]
  viability, T/C: 94.2%
[7]
  viability, T/C: 42.7%
[8]
  viability, T/C: 24%
Second compound 0.316 µM, first compound 0.000316 µM
  viability, T/C: 97%
Second compound 0.316 µM, first compound 0.001 µM
  viability, T/C: 102%
[9]
  viability, T/C: 88.1%
[10]
  viability, T/C: 98.8%
[11]
  viability, T/C: 42.5%
[12]
  viability, T/C: 23.2%
Second compound 1 µM, first compound 0.000316 µM
  viability, T/C: 101%
Second compound 1 µM, first compound 0.001 µM
  viability, T/C: 104%
[13]
  viability, T/C: 91.7%
[14]
  viability, T/C: 101%
[15]
  viability, T/C: 44.1%
[16]
  viability, T/C: 24%
Second compound 3.16 µM, first compound 0.000316 µM
  viability, T/C: 114%
Second compound 3.16 µM, first compound 0.001 µM
  viability, T/C: 93.3%
[17]
  viability, T/C: 91.7%
[18]
  viability, T/C: 88.1%
[19]
  viability, T/C: 40.9%
[20]
  viability, T/C: 24.1%
Second compound 10 µM, first compound 0.000316 µM
  viability, T/C: 101%
Second compound 10 µM, first compound 0.001 µM
  viability, T/C: 84.5%
[21]
  viability, T/C: 82.7%
[22]
  viability, T/C: 79.5%
[23]
  viability, T/C: 42.6%
[24]
  viability, T/C: 19.5%

## CC(=O)OC12COC1CC(O)C1(C)C(=O)C(O)C3=C(C)C(OC(=O)C(O)C(NC(=O)OC(C)(C)C)c4ccccc4)CC(O)(C(OC(=O)c4ccccc4)C21)C3(C)C (stereo unspecified) + C=CC(=O)N1CCN(c2nc(OCC3CCCN3C)nc3c(F)c(-c4nc(N)cc(C)c4C(F)(F)F)c(Cl)cc23)C(C)C1
Second compound 0.00316 µM
  IC50: < 31.6 nM
Second compound 0.01 µM
  IC50: < 31.6 nM
Second compound 0.0316 µM
  IC50: < 31.6 nM
Second compound 0.1 µM
  IC50: < 31.6 nM
Second compound 0.316 µM
  IC50: < 31.6 nM
Second compound 1 µM
  IC50: < 31.6 nM
Second compound 0.00316 µM, first compound 0.0316 µM
  viability, T/C: 5.23%
Second compound 0.00316 µM, first compound 0.1 µM
  viability, T/C: 4.77%
Second compound 0.00316 µM, first compound 0.316 µM
  viability, T/C: 3.44%
Second compound 0.00316 µM, first compound 1 µM
  viability, T/C: 4.18%
Second compound 0.00316 µM, first compound 3.16 µM
  viability, T/C: 4.77%
Second compound 0.00316 µM, first compound 10 µM
  viability, T/C: 16.1%
Second compound 0.01 µM, first compound 0.0316 µM
  viability, T/C: 5.39%
Second compound 0.01 µM, first compound 0.1 µM
  viability, T/C: 5.01%
Second compound 0.01 µM, first compound 0.316 µM
  viability, T/C: 3.61%
Second compound 0.01 µM, first compound 1 µM
  viability, T/C: 2.92%
Second compound 0.01 µM, first compound 3.16 µM
  viability, T/C: 3.84%
Second compound 0.01 µM, first compound 10 µM
  viability, T/C: 13.6%
[3]
  viability, T/C: 6.48%
[4]
  viability, T/C: 4.68%
[25]
  viability, T/C: 3.7%
[26]
  viability, T/C: 2.91%
Second compound 0.0316 µM, first compound 3.16 µM
  viability, T/C: 3.42%
Second compound 0.0316 µM, first compound 10 µM
  viability, T/C: 10.1%
[7]
  viability, T/C: 6.61%
[8]
  viability, T/C: 4.59%
[27]
  viability, T/C: 2.95%
[28]
  viability, T/C: 3.77%
Second compound 0.1 µM, first compound 3.16 µM
  viability, T/C: 5.42%
Second compound 0.1 µM, first compound 10 µM
  viability, T/C: 11.1%
[11]
  viability, T/C: 5.94%
[12]
  viability, T/C: 3.96%
[29]
  viability, T/C: 3.29%
[30]
  viability, T/C: 3.54%
Second compound 0.316 µM, first compound 3.16 µM
  viability, T/C: 4.12%
Second compound 0.316 µM, first compound 10 µM
  viability, T/C: 10.3%
[15]
  viability, T/C: 4.92%
[16]
  viability, T/C: 3.77%
[31]
  viability, T/C: 4.87%
[32]
  viability, T/C: 4.09%
Second compound 1 µM, first compound 3.16 µM
  viability, T/C: 4.48%
Second compound 1 µM, first compound 10 µM
  viability, T/C: 11%

## O=C(c1ccc(F)c(F)c1Nc1ccc(I)cc1F)N1CC(O)([C@@H]2CCCCN2)C1 + C#Cc1c(F)ccc2cc(O)cc(-c3ncc4c(N5CC6CCC(C5)N6)nc(OCC56CCCN5CC(F)C6)nc4c3F)c12
Second compound 0.0316 µM
  IC50: > 1000 nM
Second compound 0.1 µM
  IC50: > 1000 nM
Second compound 0.316 µM
  IC50: > 1000 nM
Second compound 1 µM
  IC50: > 1000 nM
Second compound 3.16 µM
  IC50: > 1000 nM
Second compound 10 µM
  IC50: > 1000 nM
[1]
  viability, T/C: 119%
[2]
  viability, T/C: 102%
[3]
  viability, T/C: 102%
[4]
  viability, T/C: 81.9%
[25]
  viability, T/C: 77.9%
[26]
  viability, T/C: 58%
[5]
  viability, T/C: 110%
[6]
  viability, T/C: 107%
[7]
  viability, T/C: 91.5%
[8]
  viability, T/C: 92.8%
[27]
  viability, T/C: 82.3%
[28]
  viability, T/C: 57.1%
[9]
  viability, T/C: 108%
[10]
  viability, T/C: 104%
[11]
  viability, T/C: 94.9%
[12]
  viability, T/C: 84.7%
[29]
  viability, T/C: 74%
[30]
  viability, T/C: 62.9%
[13]
  viability, T/C: 105%
[14]
  viability, T/C: 116%
[15]
  viability, T/C: 87.9%
[16]
  viability, T/C: 93.7%
[31]
  viability, T/C: 77.7%
[32]
  viability, T/C: 58.1%
[17]
  viability, T/C: 110%
[18]
  viability, T/C: 103%
[19]
  viability, T/C: 92.8%
[20]
  viability, T/C: 86.5%
Second compound 3.16 µM, first compound 0.316 µM
  viability, T/C: 75.7%
Second compound 3.16 µM, first compound 1 µM
  viability, T/C: 62.9%
[21]
  viability, T/C: 102%
[22]
  viability, T/C: 84.4%
[23]
  viability, T/C: 82.8%
[24]
  viability, T/C: 85.6%
Second compound 10 µM, first compound 0.316 µM
  viability, T/C: 78.9%
Second compound 10 µM, first compound 1 µM
  viability, T/C: 63.8%
